Literature values as cited in patent US20230218627A1, “PRESERVATIVE FREE PHARMACEUTICAL COMPOSITION FOR OPHTHALMIC ADMINISTRATION COMPRISING BRIMONIDINE” (PHARMATHEN S.A., priority 2020, published 2023).

Columns and labels:
[1] = test system: alpha-2 adrenergic receptor

| selectivity for the alpha-2 adrenergic receptor than the alpha-1 adrenergic receptor [1] [fold] | solubility in ethanol (ethanol) | solubility in water (water) | Compound |
| --- | --- | --- | --- |
| 1000 |  |  | Brc1c(NC2=NCCN2)ccc2nccnc12 [Brimonidine] |
|  | soluble | soluble | CC(C)(C)NC[C@H](O)COc1nsnc1N1CCOCC1.O=C(O)/C=C\C(=O)O [Timolol maleate, (2S)-1-[(1,1-Dimethylethyl)amino]-3-[[4-(morpholin-4-yl)-1,2,5-thiadiazol-3-yl]oxy]propan-2-ol (Z)-butenedioate] |
